The values below come from patent publication US20080085333A1, “Composition Comprising Extract of Anemarrhena Asphodeloides and Aralia Elata,and Use Thereof” (MEDVILL CO., LTD., priority 2004, published 2008).

Molecules are shown by their SMILES. ≈ marks a conversion by molar mass, not a printed value.

In assay [1] the test system is Propionibacterium acnes (KCTC 3314). The assay is described as follows: Minimum inhibitory concentration in BHI broth, anaerobic culture, O.D. 660 nm. In kind it is cell-based. The following applies: 37° C., 48-72 hours. The protocol: To measure the antibacterial effect of the inventive extract against Propionibacterium acnes, […] of BHI (brain heart infusion) broth was inoculated with a culture of Propionibacterium acnes (KCTC 3314) at a concentration of 1% (v/v). Then, the inoculated broth was treated with each of the water extract of Anemarrhena asphodeloides or water extract of Aralia elata prepared in Example 1, the water extract of Anemarrhena asphodeloides and Aralia elata prepared in Example 2 and the ethanol extract of Anemarrhena asphodeloides and Aralia elata prepared in Example 3 at varying concentrations of 0.1%, 1%, 5%, 10% and 20%. A negative control group was treated with physiological saline. […] As positive control groups, erythromycin and triclosan, which are known to have antiacne effect, were used.

Assay [2] relates to PGE2 production in mouse macrophage cell line Raw264.7. The experiment in a line: Inhibition of LPS-induced PGE2 production in macrophages (ELISA). In kind it is cell-based. The following applies: Raw264.7, extract 1 hour before LPS, LPS 16 hours, read-out: IC50 for inhibition of PEG2 production. The source says: The effect of the inventive water or organic solvent extract of Anemarrhena asphodeloides and Aralia elata on the production of PGE2 (prostaglandin E2) in mouse macrophages was examined to measure a concentration at which a 50% inhibitory effect is shown. The PGE2 is a substance synthesized by a COX-2 enzyme in macrophages permeated skin when infected with foreign substances or germs, and the degree of inflammation and the secreted amount of PGE2 are closely connected with each other. Namely, as inflammation becomes more severe, the secretion of PGE2 increases.
Meanwhile, when mouse macrophage cell line Raw264.7 (obtained from Korean Cell Line Bank) is cultured in RPMI medium while it is treated with LPS (lipopolysaccharide) for 16 hours, the production of PGE2 will increase. Thus, 1 hour before the macrophage cell line was treated with LPS, the macrophage cell line was treated with each of the water extract of Anemarrhena asphodeloides or water extract of Aralia elata prepared in Example 1, the water extract of Anemarrhena asphodeloides and Aralia elata prepared in Example 2 and the ethanol extract of Anemarrhena asphodeloides and Aralia elata prepared in Example 3, at varying concentrations of 5 mg/ml, 1 mg/ml, 500 μg/ml, 100 μg/ml, 50 μg/ml and 10 μg/ml, and then measured for the amount of PEG2 produced. […]
On the technique in general: An ELISA detects its analyte on a solid surface through an enzyme-linked reagent.

`Oc1cc(Cl)ccc1Oc1ccc(Cl)cc1Cl` [triclosan]: the MIC in assay [1] is given as 0.001 ppm, v/v.

As to `CC[C@H]1OC(=O)[C@H](C)[C@@H](O[C@H]2C[C@@](C)(OC)[C@@H](O)[C@H](C)O2)[C@H](C)[C@@H](O[C@@H]2O[C@H](C)C[C@H](N(C)C)[C@H]2O)[C@](C)(O)C[C@@H](C)C(=O)[C@H](C)[C@@H](O)[C@]1(C)O` [erythromycin], the MIC in assay [1] is recorded as 0.0005 ppm, v/v. As a reminder, the IC50 is the midpoint of a concentration-inhibition curve. As for `CC(=O)Oc1ccccc1C(=O)O` [aspirin], the half-inhibitory concentration (IC50) in assay [2] is 48 mg/L (≈ 266 µM).
